Test results from patent US10189795B2, “Aryl amine substituted quinoxaline used as anticancer drugs” (priority 2014, dated 2019).

Key:
PLC5 xenograft tumor = PLC5 xenograft tumor growth in nude mice; format: in vivo; details: 10 mg/kg, oral gavage daily, 4 weeks, vs control arm
Protocol: Male NCr athymic nude mice (5-7 weeks of age) were obtained from the National Laboratory Animal Center (Taipei, Taiwan). All experimental procedures using these mice were performed in accordance with protocols approved by the Institutional Laboratory Animal Care and Use Committee of National Taiwan University. Each mouse was inoculated subcutaneously in the dorsal flank with 1×10^6 PLC5 or A549 cells suspended in serum-free medium containing 50% Matrigel (BD Biosciences, Bedford, Mass., USA). When tumors reached 100-150 mm^3, mice were treated with sorafenib, the erlotinib derivatives of the present invention, or vehicle (control) at 10 mg/kg/day daily by oral gavage for 4 weeks.
The present invention used a PLC5 xenograft mouse model to assess the effects of TD-52 in vivo. The present choose sorafenib as one of the comparative treatment arms. Tumor-bearing mice were administered sorafenib (10 mg/kg), TD-52 (10 mg/kg) or DMSO (vehicle, as control). […] The present invention further examined the xenografted tumors taken from mice receiving TD-52 and vehicle to confirm the molecular events in the tumor tissue. […] When PP2A activity was enhanced by TD-52, Akt was dephosphorylated, promoting HCC cell apoptosis.

BA (%), Table 5 = details: in vivo
A549 = assay: cell viability of A549 cells, 1 and 10 uM; format: cell-based; details: Homo sapiens
Protocol: [Worded in the source for another cell line; this cell line is reported under the same test.] (§1) Sorafenib (Nexavar), erlotinib (Tarceva) and Paclitaxel were kindly provided by Bayer Pharmaceuticals (Pittsburgh, Pa., USA) and Roche Pharmaceuticals (Basel, Switzerland) respectively. Okadaic acid (OA) was purchased from Cayman Chemical (Ann Arbor, Mich., USA) and z-VAD-fmk was obtained from Sigma (St. Louis, Mo., USA). For in vitro studies, drugs at various concentrations were dissolved in dimethyl sulfoxide (DMSO), and added to cells in Dulbecco's modified Eagle's medium (DMEM) or Roswell Park Memorial Institute (RPMI) containing 5% fetal bovine serum (FBS).
(§2) The Sk-Hep1, PLC/PRF/5 (PLC) and Hep3B cell lines were obtained from American Type Culture Collection (ATCC; Manassas, Va., USA). The Huh-7 HCC cell line was obtained from the Health Science Research Resources Bank (HSRRB; Osaka, Japan; JCRB0403). Cells were maintained in DMEM supplemented with 10% FBS in a 37° C. humidified incubator in an atmosphere of 5% CO^2 in air.

NCI-1703 = assay: cell viability of NCI-1703 cells, 1 and 10 uM of each erlotinib derivative, and IC50; format: cell-based; details: Homo sapiens
Protocol: [Worded in the source for another cell line; this cell line is reported under the same test.] as §1, §2

H358 = assay: cell viability of H358 cells, 1 and 10 uM; format: cell-based; details: Homo sapiens, NCI-H358
Protocol: [Worded in the source for another cell line; this cell line is reported under the same test.] as §1, §2

NCI-H226 = assay: cell viability of NCI-H226 cells, 1 and 10 uM; format: cell-based; details: Homo sapiens
Protocol: [Worded in the source for another cell line; this cell line is reported under the same test.] as §1, §2

SW900 = assay: cell viability of SW900 cells, 1 and 10 uM; format: cell-based; details: Homo sapiens
Protocol: [Worded in the source for another cell line; this cell line is reported under the same test.] as §1, §2

PP2A = PP2A phosphatase activity (malachite green-phosphate assay in cell lysate); format: cell-based
Protocol: The protein phosphatase activity in each cell lysate was determined by measuring the generation of free phosphate from threonine phosphopeptide using the malachite green-phosphate complex assay as described by the manufacturer (Upstate Biotechnology, Lake Placid, N.Y., USA). In brief, HCC cell lysates were first prepared in a low-detergent lysis buffer. […] After incubation for 10 min at 30° C., the malachite dye was added and free phosphate was measured by optical density at 650 nm. In order to avoid variation resulting from differences in the amount of immunoprecipitation protein between samples, the phosphatase activities were normalized to the amounts of PP2A immunoprecipitated, which were detected and quantified by immunoblot analysis for each treatment group.

SET-PP2Ac binding = molecular target: T1, SET-PP2Ac binding (Homo sapiens, UniProt Q01105); assay: disruption of SET-PP2Ac binding (surface plasmon resonance, co-IP)
T1 construct: His; purchased Genway (SET-His); Abnova (PP2Ac-GST) GWB-ATG319; H00005515
T1 sequence (Q01105 1-277 isoform Q01105-2): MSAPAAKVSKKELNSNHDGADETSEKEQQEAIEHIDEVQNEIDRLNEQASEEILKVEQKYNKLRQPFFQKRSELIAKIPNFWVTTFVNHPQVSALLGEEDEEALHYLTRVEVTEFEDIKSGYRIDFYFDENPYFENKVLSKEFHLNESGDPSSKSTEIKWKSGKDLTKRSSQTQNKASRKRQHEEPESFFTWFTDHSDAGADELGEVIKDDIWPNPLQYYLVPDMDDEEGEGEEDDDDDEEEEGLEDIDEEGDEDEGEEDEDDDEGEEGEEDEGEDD
Protocol: Binding affinities of full-length SET and truncated SET to PP2Ac and the effect of the erlotinib derivatives of the present invention on disrupting SET and PP2Ac were analyzed. PP2Ac-GST recombinant protein was bound in the CMS chip pre-coated with GST-capture antibodies. Sensorgrams were generated by injecting several concentrations of the erlotinib derivatives of the present invention mixed with fixed-concentration of SET recombinant protein, or the mixture of different concentration of truncated SET proteins in a fixed-dose EMQA. PP2Ac-GST recombinant protein used for this experiment was purchased from Abnova (H00005515) and SET-His recombinant protein was obtained from Genway (GWB-ATG319).
EMQA reactivates PP2A by disrupting the binding of SET-PP2Ac. To validate the role of SET, the present invention generated Hep3B cells with ectopic expression of myc-tagged SET by transient transfection. […] With a fixed amount of PP2Ac coated on the CM chip, the present invention tested the effects of a fixed-dose of EMQA on interfering different proportions of full-length and truncated forms of SET proteins in SPR system. […] To validate the findings of this ex vivo system, the present invention generated cells with ectopic overexpression of these two truncated forms of Flag-tagged SET proteins by transient transfections.

H520 = assay: cell viability of H520 cells, 1 and 10 uM; format: cell-based; details: Homo sapiens, NCI-H520
Protocol: [Worded in the source for another cell line; this cell line is reported under the same test.] as §1, §2

H2170 = assay: cell viability of H2170 cells, 1 and 10 uM; format: cell-based; details: Homo sapiens, NCI-H2170
Protocol: [Worded in the source for another cell line; this cell line is reported under the same test.] as §1, §2

Row | Structure (SMILES) | tumor size (PLC5 xenograft tumor) | BA (%) (BA (%), Table 5) | viability at 1 µM (A549) [%] | viability at 10 µM (A549) [%] | viability at 1 µM (NCI-1703) [%] | viability at 10 µM (NCI-1703) [%] | viability at 1 µM (H358) [%] | viability at 10 µM (H358) [%] | viability at 1 µM (NCI-H226) [%] | viability at 10 µM (NCI-H226) [%] | viability at 1 µM (SW900) [%] | viability at 10 µM (SW900) [%] | IC50 (NCI-1703; cell viability) [nM] | minimal concentration for PP2A activation (PP2A) [nM] | minimal concentration to disrupt SET-PP2Ac binding (SET-PP2Ac binding) [nM] | viability at 1 µM (H520) [%] | viability at 10 µM (H520) [%] | viability at 1 µM (H2170) [%] | viability at 10 µM (H2170) [%]
1 | CNC(=O)c1cc(Oc2ccc(NC(=O)Nc3ccc(Cl)c(C(F)(F)F)c3)cc2)ccn1 [sorafenib, reference compound] | smaller than those of the control arm | – | – | – | – | – | – | – | – | – | – | – | – | – | – | – | – | – | –
2 | C#Cc1cccc(Nc2nc3cc([N+](=O)[O-])ccc3nc2Nc2ccc(O)cc2)c1 [TD619, 4-(2-(3-ethynylphenylamino)-7-nitroquinoxalin-3-ylamino)phenol] | – | 62 | 105 ± 19.5 | 20.9 ± 1.7 | 119 ± 11.2 | 33.6 ± 5.4 | 87.5 ± 3.6 | 22.1 ± 0.6 | 110 ± 18.2 | 19.5 ± 0.7 | – | – | – | – | – | – | – | – | –
3 | C#Cc1cccc(Nc2nc3ccc([N+](=O)[O-])cc3nc2Nc2cccc(C#C)c2)c1 [TD604, N^2,N^3-bis(3-ethynylphenyl)-6-nitroquinoxaline-2,3-diamine] | – | 57 | 117 ± 7.2 | 132 ± 5.1 | 15.2 ± 0.5 | 12.5 ± 0.3 | 115 ± 9 | 116 ± 8.5 | 40.3 ± 1.7 | 5.3 ± 0.3 | 86.1 ± 22.8 | 0 | 600 | <50 | 50 to 100 | 30.5 ± 13.9 | 0.99 ± 0.02 | 74.7 ± 6.38 | 2.06 ± 0.66
4 | Cc1ccc(Nc2nc3ccccc3nc2Nc2ccc(C)c(O)c2)cc1O [TD66, 5,5′-(quinoxaline-2,3-diylbis(azanediyl))bis(2-methylphenol)] | – | 22 | 55.5 ± 5.1 | 11.1 ± 0.6 | 84.5 ± 2.3 | 10.1 ± 0.2 | 96.6 ± 0.9 | 14.9 ± 3 | 71.2 ± 1.2 | 4.7 ± 0.1 | 113 ± 4.64 | 77.4 ± 20.5 | – | – | – | 104 ± 8.53 | 51.7 ± 20.5 | 101.5 ± 0.48 | 3.7 ± 1.37
